Laboratory results: patent publication US20240343710A1, “HETEROCYCLIC COMPOUNDS AND METHODS OF USE THEREOF” (1cBio, Inc., priority 2023, published 2024)
pIC50: −log10 of the molar value. Structures can show the parent of a compound that is named as a salt. Where two headings read alike, the source gives them in different places.

What was measured:
[1] = biological target: recombinant human PARP1 (Homo sapiens, UniProt P09874); experiment: PARP1 fluorescence polarization binding assay; conditions: GST-tagged PARP1 20 nM, PARP1-FL probe 3 nM
In short: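 GST-tagged human PARP1 (20 nM final) preincubated 30 min at RT with compound (10-point 3-fold series or single concentration). PARP1-FL probe (3 nM final) added, then 4 h at RT. Buffer: 50 mM Tris pH 8.0, 10 mM MgCl2, 150 mM NaCl, 0.001% Triton X-100. FP mP values normalized to controls; IC50 from four-parameter fit.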

[2] = biological target: recombinant human PARP2 (Homo sapiens, UniProt Q9UGN5); experiment: PARP2 fluorescence polarization binding assay; conditions: read-out: PARP2 % inh at 10 μM
[3] = system: DLD-1 wild-type colorectal adenocarcinoma cells; experiment: Cell viability assay (Cell Titer-Glo, 7 days), DLD-1 wild-type; format: cell-based; conditions: Homo sapiens, 168 h, DLD-1 wild-type cells, read-out: DLD-1 wild-type % inh at 10 μM
[4] = system: DLD-1 BRCA2(−/−) colorectal adenocarcinoma cells; experiment: Cell viability assay (Cell Titer-Glo, 7 days), DLD-1 BRCA2(−/−); format: cell-based; conditions: Homo sapiens, 168 h, DLD-1 BRCA2(−/−) cells
[5] = percent inhibition at 10 μM, fluorescence polarization, GST-tagged PARP2 20 nM, PARP1-FL probe 3 nM

recombinant human PARP2, sequence (Q9UGN5 whole entry): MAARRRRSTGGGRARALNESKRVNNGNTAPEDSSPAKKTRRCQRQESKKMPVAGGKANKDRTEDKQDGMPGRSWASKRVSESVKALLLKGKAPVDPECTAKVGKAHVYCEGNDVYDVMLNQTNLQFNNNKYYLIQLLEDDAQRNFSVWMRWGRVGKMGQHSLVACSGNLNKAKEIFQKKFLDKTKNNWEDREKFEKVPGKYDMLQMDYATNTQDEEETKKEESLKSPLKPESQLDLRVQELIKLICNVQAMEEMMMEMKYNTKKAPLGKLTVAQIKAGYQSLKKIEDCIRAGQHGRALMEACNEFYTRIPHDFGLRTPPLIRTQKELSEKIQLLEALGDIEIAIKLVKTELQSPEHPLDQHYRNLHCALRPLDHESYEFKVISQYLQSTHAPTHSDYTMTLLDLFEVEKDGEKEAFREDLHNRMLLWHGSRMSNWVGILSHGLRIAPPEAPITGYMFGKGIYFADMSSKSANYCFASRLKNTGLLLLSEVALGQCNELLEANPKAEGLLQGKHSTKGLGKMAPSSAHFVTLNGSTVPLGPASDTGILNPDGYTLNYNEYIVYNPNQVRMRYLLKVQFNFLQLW
recombinant human PARP1, sequence (P09874 whole entry): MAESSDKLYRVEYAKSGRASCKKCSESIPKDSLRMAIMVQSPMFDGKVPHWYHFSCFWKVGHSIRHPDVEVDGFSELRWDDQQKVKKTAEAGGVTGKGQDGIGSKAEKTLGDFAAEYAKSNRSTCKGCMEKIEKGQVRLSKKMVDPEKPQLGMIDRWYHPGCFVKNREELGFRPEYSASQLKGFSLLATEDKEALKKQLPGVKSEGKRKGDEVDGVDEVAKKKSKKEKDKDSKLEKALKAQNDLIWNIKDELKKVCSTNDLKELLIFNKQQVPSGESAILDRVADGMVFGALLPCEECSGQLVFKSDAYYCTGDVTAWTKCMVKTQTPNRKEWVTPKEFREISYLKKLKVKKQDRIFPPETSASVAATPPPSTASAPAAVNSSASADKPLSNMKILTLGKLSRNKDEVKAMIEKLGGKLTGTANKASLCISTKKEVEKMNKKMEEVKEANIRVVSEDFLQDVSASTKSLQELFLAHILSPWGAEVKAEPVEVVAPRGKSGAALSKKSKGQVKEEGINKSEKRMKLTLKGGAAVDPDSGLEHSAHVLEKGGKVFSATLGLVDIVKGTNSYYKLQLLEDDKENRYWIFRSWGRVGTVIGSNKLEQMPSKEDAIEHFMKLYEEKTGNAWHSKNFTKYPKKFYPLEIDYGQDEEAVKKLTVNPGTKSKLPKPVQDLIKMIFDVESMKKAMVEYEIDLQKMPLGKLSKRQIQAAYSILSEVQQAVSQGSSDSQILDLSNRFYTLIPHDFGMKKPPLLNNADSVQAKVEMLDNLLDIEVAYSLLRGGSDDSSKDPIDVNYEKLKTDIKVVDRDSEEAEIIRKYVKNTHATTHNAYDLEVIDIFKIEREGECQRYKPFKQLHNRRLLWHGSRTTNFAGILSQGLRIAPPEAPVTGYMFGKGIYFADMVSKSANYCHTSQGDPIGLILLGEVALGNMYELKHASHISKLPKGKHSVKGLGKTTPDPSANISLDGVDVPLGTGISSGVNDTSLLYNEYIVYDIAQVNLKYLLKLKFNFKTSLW

Structure (SMILES): CCNC(=O)Nc1cc(CN2CCN(c3ccc(C(F)(F)F)cn3)CC2)ccn1 [Compound 273, 1-ethyl-3-(4-((4-(5-(trifluoromethyl)pyridin-2-yl)piperazin-1-yl)methyl)pyridin-2-yl) urea]
- pIC50 [1]: > 7.00
- inhibition at 10 µM [2, 5]: < 33%
- inhibition at 10 µM [3]: < 33%
- pIC50 [4]: ≤ 5.52

Structure (SMILES): [2H]C([2H])([2H])c1nc(C(=O)NC)ccc1N1CCN(Cc2ccnc(NC(=O)NCC)c2)CC1 [Compound 274, 5-(4-((2-(3-ethylureido)pyridin-4-yl)methyl)piperazin-1-yl)-N-methyl-6-(methyl-d3) picolinamide hemiformate]
- pIC50 [1]: > 7.00
- inhibition at 10 µM [2, 5]: < 33%
- inhibition at 10 µM [3]: < 33%
- pIC50 [4]: > 6.52

Structure (SMILES): CCNC(=O)Nc1cc(CN2CCN(c3ccc(C#N)cn3)CC2)ncn1 [Compound 275, 1-(6-((4-(5-cyanopyridin-2-yl)piperazin-1-yl)methyl)pyrimidin-4-yl)-3-ethylurea]
- pIC50 [1]: > 7.00
- inhibition at 10 µM [2, 5]: < 33%
- inhibition at 10 µM [3]: < 33%
- pIC50 [4]: > 6.52

Structure (SMILES): CCNC(=O)Nc1cc(CN2CCN(c3ccc(C#N)cc3F)CC2)ccn1 [Compound 276, 1-(4-((4-(4-cyano-2-fluorophenyl)piperazin-1-yl)methyl)pyridin-2-yl)-3-ethylurea trifluoroacetate]
- pIC50 [1]: > 7.00
- inhibition at 10 µM [2]: < 33%
- inhibition at 10 µM [3]: < 33%
- pIC50 [4]: > 6.52

Structure (SMILES): CCNC(=O)Nc1ncc(CN2CCN(c3ccc(C(=O)NC)nc3C)CC2)n1C [Compound 277, 5-(4-((2-(3-ethylureido)-1-methyl-1H-imidazol-5-yl)methyl)piperazin-1-yl)-N,6-dimethylpicolinamide]
- pIC50 [1]: > 7.00
- inhibition at 10 µM [2, 5]: < 33%
- inhibition at 10 µM [3]: < 33%
- pIC50 [4]: ≤ 5.52

Structure (SMILES): CCNC(=O)Nc1ncnc(CN2CCN(c3ccc(C(=O)NC)nc3F)CC2)c1F [Compound 278, 5-(4-((6-(3-ethylureido)-5-fluoropyrimidin-4-yl)methyl)piperazin-1-yl)-6-fluoro-N-methylpicolinamide]
- pIC50 [1]: > 7.00
- inhibition at 10 µM [2, 5]: < 33%
- inhibition at 10 µM [3]: < 33%
- pIC50 [4]: > 6.52
